Some test systems named below: OVCAR-5; SNB-19; PC-3; MDA-MB-435; SK-MEL-5; SF-268; NCI-H226; SR; SN12C; MOLT-4; A498; NCI/ADR-RES; KM12; MDA-MB-231; OVCAR-8; Hs-578T; IGROV-1; U-251; SNB-75; NCI-H23.
Common to all, as to assay: NCI-60 cell line screen, 48 h

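Step 1: Grow cells in 96-well plates. Step 2: Expose to compound for 48 hours at 5 concentrations. Step 3: Interpolate endpoints linearly; if unreached, use highest concentration. GI50 = concentration required for 50% inhibition of growth.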 Calls of active or inactive are those of the source. Cut-off read from the data, not from the text of the source: active = GI50 up to about 1.1 µM and inactive = higher.

For `CSC1=C(C(=O)Nc2ccc(Cl)cc2)C(N)=NC1=O`, the GI50 in the assay on OVCAR-5, with SNB-19, in the assay with PC-3, with MDA-MB-435, in the assay on SK-MEL-5 and with SF-268 was > 100 µM (inactive) throughout. Besides, the GI50 in the assay on NCI-H226 is > 100 µM (inactive); in the assay with SR, 37.8 µM (inactive); in the assay on SN12C, > 100 µM (inactive); in the assay on MOLT-4, > 100 µM (inactive); in the assay on A498 it was > 100 µM (inactive); in the assay on NCI/ADR-RES, > 100 µM (inactive). Further, the GI50 with KM12 was > 100 µM (inactive); in the assay with MDA-MB-231 it was > 100 µM (inactive); in the assay with OVCAR-8, > 100 µM (inactive); in the assay on Hs-578T it was > 100 µM (inactive); with IGROV-1, 19.7 µM (inactive); in the assay on U-251, > 100 µM (inactive). Further, the GI50 in the assay with SNB-75 and with NCI-H23 was > 100 µM (inactive) each time.
As to `Nc1c(O)c(C(=O)O)cc2ccccc12`, the GI50 is 18.9 µM (inactive) with OVCAR-5; > 100 µM (inactive) in the assay with SNB-19; 39.1 µM (inactive) with PC-3; 18.8 µM (inactive) in the assay with MDA-MB-435; 14.7 µM (inactive) in the assay on SK-MEL-5; 42 µM (inactive) with SF-268. Besides, the GI50 in the assay on NCI-H226 was 30.1 µM (inactive); in the assay on SR, 39.4 µM (inactive); in the assay on SN12C, 38.4 µM (inactive); in the assay with MOLT-4, 29.8 µM (inactive); in the assay on A498 it was > 100 µM (inactive); in the assay with NCI/ADR-RES it was 32.1 µM (inactive). The GI50 is 40.2 µM (inactive) with KM12; 15.3 µM (inactive) with MDA-MB-231; 44.3 µM (inactive) in the assay on OVCAR-8; 37 µM (inactive) in the assay on Hs-578T; > 100 µM (inactive) in the assay with IGROV-1; 30.3 µM (inactive) in the assay with U-251. Moreover, the GI50 in the assay with SNB-75 was 24.3 µM (inactive); in the assay with NCI-H23 it was 23.3 µM (inactive).
`Cc1c2cc[n+](C)c(C)c2cc2c1[nH]c1ccccc12`: the GI50 in the assay on OVCAR-5 is 19.2 µM (inactive); in the assay with SNB-19, 0.8 µM (active); in the assay on PC-3, 22.2 µM (inactive); in the assay with MDA-MB-435, 16.2 µM (inactive); with SK-MEL-5, 2.44 µM (inactive); in the assay with SF-268, 0.984 µM (active). The GI50 with NCI-H226 is 1.69 µM (inactive); in the assay with SR, > 26.6 µM (inactive); in the assay with SN12C, 0.627 µM (active); in the assay on MOLT-4, 4.05 µM (inactive); with A498, 70.5 µM (inactive); in the assay with NCI/ADR-RES, 71.1 µM (inactive). For the same molecule, the GI50 is 2.65 µM (inactive) with KM12; 2.51 µM (inactive) with MDA-MB-231; 2.82 µM (inactive) in the assay on OVCAR-8; 0.818 µM (active) with Hs-578T; 7.98 µM (inactive) in the assay with IGROV-1; 0.69 µM (active) in the assay on U-251. Also, the figures for the GI50 with SNB-75 and with NCI-H23 were 1.19 µM (inactive) and 2.05 µM (inactive), respectively.
For `CC(C)=C1C(=O)C[C@]2(C)C/C=C(\C)CC/C=C(\C)CC[C@@H]12`, the GI50 was 12.1 µM (inactive) in the assay on OVCAR-5; > 50 µM (inactive) with SNB-19; 11.8 µM (inactive) in the assay with PC-3; 9.53 µM (inactive) with MDA-MB-435; 8.38 µM (inactive) in the assay with SK-MEL-5; 8.93 µM (inactive) in the assay with SF-268. For the same molecule, the GI50 in the assay on NCI-H226 is 8.69 µM (inactive); with SR, 9.86 µM (inactive); in the assay on SN12C, 9.42 µM (inactive); in the assay on MOLT-4 it was 8.61 µM (inactive); in the assay with A498 it was 20.8 µM (inactive); in the assay on NCI/ADR-RES, 7.36 µM (inactive). For the same molecule, the GI50 is 8.67 µM (inactive) with KM12; 7.89 µM (inactive) in the assay with MDA-MB-231; 8.51 µM (inactive) with OVCAR-8; 11 µM (inactive) in the assay on Hs-578T; 9.4 µM (inactive) with IGROV-1; 7.62 µM (inactive) in the assay on U-251. For the same molecule, the values for the GI50 in the assay with SNB-75 and in the assay with NCI-H23 were 9.66 µM (inactive) and 10.2 µM (inactive), respectively.
Turning to `COc1ccc(C2C(C)C(=O)C(C)C(c3ccc(OC)cc3)N2N=O)cc1` (stereo not given), the GI50 was 393 µM (inactive) in the assay on OVCAR-5; 195 µM (inactive) in the assay with SNB-19; 253 µM (inactive) with PC-3; 166 µM (inactive) in the assay with MDA-MB-435; > 575 µM (inactive) with SK-MEL-5; 171 µM (inactive) in the assay on SF-268. For the same molecule, the GI50 in the assay with NCI-H226 was 207 µM (inactive); in the assay with SR, > 685 µM (inactive); in the assay with SN12C it was 530 µM (inactive); in the assay with MOLT-4, > 789 µM (inactive); with A498, 203 µM (inactive); in the assay with NCI/ADR-RES, 258 µM (inactive). For the same molecule, the GI50 with KM12 is > 678 µM (inactive); in the assay on MDA-MB-231, 27.2 µM (inactive); in the assay with OVCAR-8, 340 µM (inactive); with Hs-578T, 56.5 µM (inactive); in the assay with IGROV-1 it was 165 µM (inactive); in the assay with U-251, 117 µM (inactive). Besides, the GI50 in the assay with SNB-75 was 26.5 µM (inactive); in the assay with NCI-H23, 261 µM (inactive).
For `COC1N(C2CC(O)C(CO)O2)C(=O)NC(=O)C1(F)Br` (stereo not given), the GI50 with OVCAR-5 was 77.8 µM (inactive); in the assay with SNB-19 it was 41.2 µM (inactive); with PC-3, 51.3 µM (inactive); in the assay with MDA-MB-435 it was 39.6 µM (inactive); in the assay with SK-MEL-5, 7.66 µM (inactive); in the assay on SF-268, 1.2 µM (inactive). The GI50 with NCI-H226 is > 50 µM (inactive); in the assay on SR, 6.18 µM (inactive); with SN12C it was 9.25 µM (inactive); with MOLT-4 it was 11 µM (inactive); in the assay with A498, 9.29 µM (inactive); in the assay with NCI/ADR-RES, 10.7 µM (inactive). For the same molecule, the GI50 is 21.6 µM (inactive) in the assay with KM12; > 57.1 µM (inactive) in the assay on MDA-MB-231; 4.02 µM (inactive) with OVCAR-8; 24.5 µM (inactive) with Hs-578T; 14.1 µM (inactive) in the assay on IGROV-1; 23.9 µM (inactive) with U-251. Besides, the GI50 in the assay on SNB-75 is 36.1 µM (inactive); with NCI-H23, 6.73 µM (inactive).
Consider `CN1CCCCC1CCN1c2ccccc2Sc2ccc([S+](C)[O-])cc21` (stereo not given) [MESORIDAZINE], for which the GI50 in the assay on OVCAR-5, in the assay with SNB-19, in the assay with PC-3, with MDA-MB-435, in the assay on SK-MEL-5 and in the assay on SF-268 was > 100 µM (inactive) each time. For the same molecule, the GI50 in the assay on NCI-H226, in the assay on SR, in the assay with SN12C, in the assay on MOLT-4, with A498 and in the assay on NCI/ADR-RES was > 100 µM (inactive) in each case. Besides, the GI50 in the assay on KM12, in the assay with MDA-MB-231, with OVCAR-8, in the assay with Hs-578T, in the assay on IGROV-1 and in the assay on U-251 was > 100 µM (inactive) each time. Moreover, the GI50 with SNB-75 and in the assay with NCI-H23 was > 100 µM (inactive) each time.
For `CC(N/N=N/c1ccc(-c2nc3ccccc3[nH]2)cc1)C(=O)O` (stereo not given), the GI50 is > 100 µM (inactive) in the assay with OVCAR-5; > 100 µM (inactive) in the assay with SNB-19; 25.6 µM (inactive) with PC-3; 32.7 µM (inactive) in the assay on MDA-MB-435; 18.8 µM (inactive) with SK-MEL-5; 32.7 µM (inactive) with SF-268. In addition, the GI50 was > 100 µM (inactive) with NCI-H226; 2.4 µM (inactive) in the assay with SR; 36.3 µM (inactive) in the assay on SN12C; 5.01 µM (inactive) in the assay on MOLT-4; > 100 µM (inactive) in the assay with A498; 7.94 µM (inactive) in the assay on NCI/ADR-RES. The GI50 in the assay with KM12 is 19.2 µM (inactive); in the assay on MDA-MB-231, 33.7 µM (inactive); in the assay on OVCAR-8, 22.2 µM (inactive); with Hs-578T, 33.7 µM (inactive); in the assay with IGROV-1, 12.9 µM (inactive); in the assay with U-251, 18.1 µM (inactive). Further, the GI50 in the assay on SNB-75 was > 100 µM (inactive); in the assay on NCI-H23 it was 62.2 µM (inactive).
On to `Cc1cnc(NCCCN(C)C)c2c1[nH]c1ccc3cc(O)ccc3c12`, for which the GI50 was 0.925 µM (active) in the assay with OVCAR-5; 0.48 µM (active) with SNB-19; 0.585 µM (active) with PC-3; 1.1 µM (active) in the assay with MDA-MB-435; 0.815 µM (active) with SK-MEL-5; 0.288 µM (active) in the assay on SF-268. Also, the GI50 with NCI-H226 was 0.435 µM (active); in the assay with SR it was 0.0617 µM (active); in the assay on SN12C, 0.244 µM (active); in the assay on MOLT-4, 0.0181 µM (active); in the assay with A498, 1.56 µM (inactive); in the assay on NCI/ADR-RES it was 3.44 µM (inactive). The GI50 in the assay on KM12 is 1.39 µM (inactive); with MDA-MB-231, 0.879 µM (active); in the assay on OVCAR-8, 0.2 µM (active); in the assay on Hs-578T, 0.325 µM (active); in the assay on IGROV-1, 1.19 µM (inactive); in the assay with U-251, 0.164 µM (active). Moreover, the GI50 was 0.555 µM (active) in the assay on SNB-75 and 0.499 µM (active) with NCI-H23.
Regarding `Cc1cc2c(cc1N)C(C)C1(CCC(=O)N2Cc2ccccc2)OCCO1` (stereo not given), the GI50 in the assay on OVCAR-5 was > 100 µM (inactive); with SNB-19 it was > 100 µM (inactive); in the assay on PC-3 it was > 100 µM (inactive); with MDA-MB-435 it was > 100 µM (inactive); in the assay on SK-MEL-5 it was > 100 µM (inactive); in the assay on SF-268, 83.4 µM (inactive). The GI50 in the assay with NCI-H226 was > 100 µM (inactive); in the assay on SR, 39.2 µM (inactive); in the assay on SN12C it was > 100 µM (inactive); in the assay on MOLT-4, > 100 µM (inactive); in the assay with A498 it was > 100 µM (inactive); with NCI/ADR-RES it was > 100 µM (inactive). Besides, the GI50 in the assay with KM12, in the assay on MDA-MB-231, with OVCAR-8, in the assay with Hs-578T, with IGROV-1 and in the assay with U-251 was > 100 µM (inactive) in each case. Also, the GI50 was 32.3 µM (inactive) in the assay with SNB-75 and > 100 µM (inactive) in the assay with NCI-H23.

Values taken from ChEMBL document CHEMBL1201862, “PubChem BioAssay data set” (2004).
